Measured values reported in patent US20200277262A1, “N-(CYANO-SUBSTITUTED BENZYL OR PYRIDINYLMETHYL)-3-HYDROXYPICOLINAMIDE DERIVATIVES” (Takeda Pharmaceutical Company Limited, priority 2017, published 2020).

Legend:
[1] = molecular target: T1, PHD2 enzyme (residues 181-417) (Homo sapiens, UniProt Q9GZT9); assay: Inhibition of PHD2 Enzyme (LC/MS detection of hydroxylated peptide); format: biochemical; settings: 5 nM enzyme, 1 μM biotin-labeled peptide, 2 μM 2-oxoglutarate, 60 min pre-incubation, pH 7.3; -log(IC50), IC50 molar; read-out: Inhibition of PHD2 (pIC50) (converted)
T1 construct: The IC50 values for the PHD2 enzyme (residues 181-417) were determined
Description: The IC50 values for the PHD2 enzyme (residues 181-417) were determined by mixing increasing amounts of an inhibitor with a fixed amount of enzyme (5 nM, final concentration) and Biotin-labeled peptide (Biotin-Asp-Leu-Glu-Met-Leu-Ala-Pro-Tyr-Ile-Pro-Met-Asp-Asp-Asp-Phe-Gln-Leu, 1 μM final concentration) and 2-oxyglutarate (2 μM final concentration) in 50 mM HEPES, 50 mM KCl, 0.5 mM TCEP, 2 μM FeCl2, 0.1 mg/mL BSA, at pH 7.3. The reaction was conducted by pre-incubating the enzyme in the presence of the inhibitor for 60 minutes at room temperature. The activity of the free enzyme was measured by adding the peptide, the 2-oxoglutarate, and ascorbic acid (1 mM final concentration). The enzymatic activity was quenched after 60 minutes by adding an excess of a tight binding inhibitor to the assay mixture. The amount of product released was measured by using a LC/MS system (Agilent HPLC with Applied Biosystems API3000 Mass Spectrometer). Data were analyzed using the classical isotherm equation for the determination of IC50 values and are reported in Table 1, below, as pIC50, i.e., −log(IC50), where IC50 is molar concentration of the test compound at 50% inhibition.
(§1) Table 1 lists biological data for some of the compounds shown in the examples, where larger pIC50 and pEC50 values represent higher potency or activity, respectively. The IC50 data (reported in Table 1 as pIC50) were obtained using the enzyme-based assay described in the specification under the heading “Inhibition of PHD2 Enzyme.” The EC50 data (reported in Table 1 as pEC50) were obtained using the cell-based assay described in the specification under the heading “Cell-based HIF-α Stabilization Assay.”

[2] = system: HIF1a protein content in H9c2 rat cardiomyocytes; assay: Cell-based HIF-α Stabilization Assay (HIF1a ELISA); settings: H9c2 cells, 24 hours compound incubation, concentration giving 50% of desferrioxamine maximum response, -log(EC50), EC50 molar, read-out: Stabilization of HIF-α (pEC50) (converted)
Description: H9c2 rat cardiomyocytes (ATCC) were seeded in 96-well tissue culture microplates and cultured for 24 hours prior to addition of compounds (11 point range of serial dilutions) or DMSO vehicle. After 24 hours of compound incubation, whole cell extracts were prepared by lysing cells in cell extraction buffer containing protease and phosphatase inhibitors (Meso-Scale Discovery). HIF1a protein content was assessed by ELISA (Meso-Scale Discovery) and expressed as % relative to the maximum response obtained from the positive control, desferrioxamine (Sigma-Aldrich). EC50 for each compound was obtained by curve-fitting using XLfit4 MicroSoft Excel curve-fitting software to calculate the compound concentration that results in 50% of the desferrioxamine maximum response.
as §1

T1 sequence (Q9GZT9 181-417): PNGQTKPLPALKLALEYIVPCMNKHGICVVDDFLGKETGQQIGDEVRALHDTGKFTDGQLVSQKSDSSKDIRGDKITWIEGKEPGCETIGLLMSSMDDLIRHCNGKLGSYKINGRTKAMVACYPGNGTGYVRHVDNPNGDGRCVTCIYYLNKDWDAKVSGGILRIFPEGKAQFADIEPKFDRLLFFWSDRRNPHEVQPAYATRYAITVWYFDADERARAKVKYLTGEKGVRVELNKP

Compound | IC50 [1] | EC50 [2]
CC(NC(=O)c1ncccc1O)c1ccc(C#N)cc1 (centres unmarked) [Example 39, N-(1-(4-cyanophenyl)ethyl)-3-hydroxypicolinamide] | 1.58 µM | 50.1 µM
COCCCNc1cnc(C(=O)NCc2c(C)cc(C#N)cc2C)c(O)c1 [Example 40, N-(4-cyano-2,6-dimethylbenzyl)-3-hydroxy-5-((3-methoxypropyl)amino)picolinamide] | 0.0316 µM | 2.51 µM
CCN1CCN(c2cnc(C(=O)NCc3c(C)cc(C#N)cc3C)c(O)c2)CC1 [Example 41, N-(4-cyano-2,6-dimethylbenzyl)-5-(4-ethylpiperazin-1-yl)-3-hydroxypicolinamide] | 0.0794 µM | 6.31 µM
Cc1cc(C#N)cc(C)c1CNC(=O)c1ncc(N2CCN(CC(F)F)CC2)cc1O [Example 42, N-(4-cyano-2,6-dimethylbenzyl)-5-(4-(2,2-difluoroethyl)piperazin-1-yl)-3-hydroxypicolinamide] | 0.0398 µM | 3.98 µM
